Laboratory results as given in the supplement of paper PMC10307832.

Assays:
Experiment in all cases: relative viability (nuclei count vs DMSO), 5 days (fraction); higher = more cells survive
[1] = compound: c1ccc2c(CCNc3ccc(Nc4ccncc4)cc3)c[nH]c2c1 [Serdemetan] + CC1(C)CCC(c2ccc(Cl)cc2)=C(CN2CCN(c3ccc(C(=O)NS(=O)(=O)c4ccc(N[C@H](CCN5CCOCC5)CSc5ccccc5)c(S(=O)(=O)C(F)(F)F)c4)cc3)CC2)C1 [Navitoclax] (partner 0.5 µM)
Method in brief: (§1)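 For relative viability, nuclei counts in treated wells were divided by those in vehicle wells. Lung cancer cell lines had been pin-tool dosed in 1536-well plates the day after seeding and cultured for 5 days, then fixed and stained in one step (final 0.05% Triton X-100, 1% formaldehyde, 1 ug/ml Hoechst) and imaged at 4×. Doses were one drug alone or a fixed anchor-drug dose plus five library-drug doses (not always all listed) in √10 steps, and values are duplicate-plate medians.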

[2] = compound: C1CC(C2=C(C1)C3=C(N2)C=CC(=C3)Cl)C(=O)N [Selisistat] + C[C@@H](Oc1cc(-c2cnn(C3CCNCC3)c2)cnc1N)c1c(Cl)ccc(F)c1Cl [Crizotinib] (partner 1 µM)
Method in brief: as §1

[3] = compound: c1ccc2c(CCNc3ccc(Nc4ccncc4)cc3)c[nH]c2c1 [Serdemetan] + CCNC(=O)c1noc(-c2cc(C(C)C)c(O)cc2O)c1-c1ccc(CN2CCOCC2)cc1 [Luminespib] (partner 0.01 µM)
Method in brief: as §1

[4] = compound: c1ccc2c(CCNc3ccc(Nc4ccncc4)cc3)c[nH]c2c1 [Serdemetan] + Cc1nc(Nc2ncc(C(=O)Nc3c(C)cccc3Cl)s2)cc(N2CCN(CCO)CC2)n1 [Dasatinib] (partner 0.075 µM)
Method in brief: as §1

Row | Cell Line | relative viability ([1]; first compound 0.04 µM) | relative viability ([1]; first compound 0.1265 µM) | relative viability ([1]; first compound 0.4 µM) | relative viability ([1]; first compound 1.265 µM) | relative viability ([1]; first compound 4 µM) | relative viability ([2]; first compound 0.4 µM) | relative viability ([2]; first compound 1.265 µM) | relative viability ([2]; first compound 4 µM) | relative viability ([2]; first compound 12.65 µM) | relative viability ([2]; first compound 40 µM) | relative viability ([3]; first compound 0.04 µM) | relative viability ([3]; first compound 0.1265 µM) | relative viability ([3]; first compound 0.4 µM) | relative viability ([3]; first compound 1.265 µM) | relative viability ([3]; first compound 4 µM) | relative viability ([4]; first compound 0.04 µM) | relative viability ([4]; first compound 0.1265 µM) | relative viability ([4]; first compound 0.4 µM) | relative viability ([4]; first compound 1.265 µM) | relative viability ([4]; first compound 4 µM)
1 | 201T | 1.18 | 1.22 | 1.2 | 1.14 | 1.13 | 1.04 | 1.03 | 0.986 | 1.02 | 1.01 | 1.05 | 1.07 | 1.03 | 0.895 | 0.692 | 0.568 | 0.508 | 0.546 | 0.449 | 0.464
2 | A549 | 1.2 | 1.15 | 1.19 | 0.598 | 0.208 | 0.716 | 0.742 | 0.698 | 0.709 | 0.728 | – | – | – | – | – | – | – | – | – | –
3 | A-427 | 0.967 | 0.971 | 0.882 | 0.724 | 0.615 | 0.874 | 0.819 | 0.841 | 0.917 | 0.921 | 0.934 | 0.924 | 0.953 | 0.742 | 0.49 | 0.666 | 0.653 | 0.655 | 0.64 | 0.603
4 | ABC-1 | – | – | – | – | – | 1.01 | 1.19 | 1.1 | 0.933 | 0.881 | 0.581 | 0.648 | 0.515 | 0.567 | 0.516 | 0.541 | 0.575 | 0.585 | 0.402 | 0.429
5 | BEN | 0.0749 | 0.0626 | 0.0845 | 0.0724 | 0.0676 | 0.843 | 0.76 | 0.748 | 0.72 | 0.863 | 0.24 | 0.2 | 0.461 | – | 0.329 | 0.302 | 0.3 | 0.312 | – | 0.356
6 | CAL-12T | 1.3 | 1.42 | 1.26 | – | 1.19 | 0.668 | 0.518 | 0.795 | 0.626 | 0.422 | 0.227 | 0.28 | 0.141 | 0.266 | 0.486 | 0.392 | 0.516 | 0.429 | 0.456 | 0.292
7 | COR-L23 | 1.03 | 1 | 1.07 | 0.939 | 0.81 | 0.621 | 0.664 | 0.635 | 0.537 | 0.581 | 0.724 | 0.639 | 0.644 | 0.631 | 0.432 | 0.46 | 0.468 | 0.41 | 0.379 | 0.452
8 | COR-L 105 | 0.708 | 0.871 | 0.596 | 0.771 | 0.722 | 0.716 | 0.786 | 0.748 | 0.745 | 0.741 | 1.3 | 0.911 | 0.64 | 0.693 | 0.588 | 0.326 | 0.351 | 0.306 | 0.319 | 0.337
9 | Calu-6 | 0.973 | 0.869 | 0.682 | 0.687 | 0.493 | 0.778 | 0.602 | 0.764 | 0.682 | 0.633 | – | – | – | – | – | – | – | – | – | –
10 | ChaGo-K-1 | – | 1.15 | 0.925 | 0.681 | 0.899 | 1.15 | 1.04 | – | 1.08 | 1.09 | 0.688 | 0.463 | 0.445 | 0.27 | 0.227 | 0.587 | 0.562 | 0.572 | 0.249 | 0.24
11 | EBC-1 | 0.553 | 0.47 | 0.41 | 0.424 | 0.341 | 0.2 | 0.19 | 0.191 | 0.169 | 0.184 | – | – | – | – | – | – | – | – | – | –
12 | EKVX | 0.862 | 0.888 | 0.973 | 0.791 | 0.91 | 0.964 | 0.925 | 1.01 | 0.896 | 0.983 | 0.947 | 0.925 | 0.861 | – | 0.585 | 0.523 | 0.645 | – | 0.355 | 0.371
13 | EMC-BAC-2 | 1.14 | 1.14 | 1.1 | 1.09 | 0.745 | 0.78 | 0.74 | 0.742 | 0.582 | 0.755 | 1.14 | 1.12 | 1.13 | 0.616 | 0.636 | 0.304 | 0.358 | 0.344 | 0.268 | 0.293
14 | EPLC-272H | 1.11 | 1.15 | 0.822 | 0.632 | 0.691 | 0.941 | 0.865 | – | 0.915 | 0.992 | 0.307 | 0.401 | 0.373 | 0.252 | 0.602 | 0.42 | 0.397 | 0.389 | 0.29 | 0.418
15 | H3255 | 0.437 | 0.538 | 0.485 | 0.362 | 0.404 | 0.899 | 0.769 | 0.926 | 0.899 | 0.734 | 0.913 | 1.02 | 0.783 | 0.994 | 0.669 | 0.422 | 0.384 | 0.258 | 0.323 | 0.431
16 | HARA | 1.12 | 1.11 | 1.09 | – | 0.757 | 0.95 | 1.01 | 1 | 1 | 0.981 | 0.767 | 0.604 | 0.606 | 0.303 | 0.199 | 0.336 | 0.28 | 0.235 | 0.185 | 0.178
17 | HCC-15 | 0.755 | 0.729 | 0.624 | 0.56 | 0.504 | 0.913 | 0.866 | – | 0.782 | 0.813 | 0.362 | 0.33 | 0.281 | 0.348 | 0.288 | 0.676 | 0.608 | 0.562 | 0.541 | 0.49
18 | HCC-44 | 1.13 | 1.04 | 0.972 | 0.756 | 0.741 | 0.804 | 0.788 | 0.957 | 0.871 | 0.801 | 0.894 | 1.08 | 1.01 | 0.906 | 0.901 | – | – | – | – | –
19 | HCC-78 | 0.758 | 0.898 | 0.774 | 0.756 | 0.384 | 0.341 | 0.304 | 0.3 | 0.307 | 0.345 | – | – | – | – | – | 0.408 | 0.316 | 0.331 | 0.307 | 0.299
